Measurements as given in publication PMC11542786, “Isoscopoletin inhibits hepatocellular carcinoma cell proliferation via regulating glycolysis-related proteins” (PLOS ONE, 2024).
pKd: −log10 of the molar value.

Legend:
Experiment in all cases: microscale thermophoresis
Assay type in all cases: binding
GPI = biological target: T1, GPI (Homo sapiens, UniProt P06744)
T1 construct: labelled with DyLight 488 for MST

PGK2 = biological target: T2, PGK2 (Homo sapiens, UniProt P07205)
T2 construct: labelled with DyLight 488 for MST; docking model 2paa is not the assayed protein
T2 sequence (P07205 2-417): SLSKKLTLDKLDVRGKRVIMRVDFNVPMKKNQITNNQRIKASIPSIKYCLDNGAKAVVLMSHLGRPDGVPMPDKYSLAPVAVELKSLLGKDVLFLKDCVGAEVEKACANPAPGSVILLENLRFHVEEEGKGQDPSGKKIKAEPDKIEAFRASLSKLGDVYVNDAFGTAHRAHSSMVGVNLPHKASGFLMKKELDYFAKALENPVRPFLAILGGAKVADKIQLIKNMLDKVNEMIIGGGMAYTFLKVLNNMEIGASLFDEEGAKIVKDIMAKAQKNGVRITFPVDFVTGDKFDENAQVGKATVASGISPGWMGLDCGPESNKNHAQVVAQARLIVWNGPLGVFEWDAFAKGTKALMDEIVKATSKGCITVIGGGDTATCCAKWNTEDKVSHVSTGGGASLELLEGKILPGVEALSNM

GPD2 = biological target: T3, GPD2 (Homo sapiens, UniProt P43304)
T3 construct: labelled with DyLight 488 for MST; docking model 1x0v is not the assayed protein
T3 sequence (P43304 43-727): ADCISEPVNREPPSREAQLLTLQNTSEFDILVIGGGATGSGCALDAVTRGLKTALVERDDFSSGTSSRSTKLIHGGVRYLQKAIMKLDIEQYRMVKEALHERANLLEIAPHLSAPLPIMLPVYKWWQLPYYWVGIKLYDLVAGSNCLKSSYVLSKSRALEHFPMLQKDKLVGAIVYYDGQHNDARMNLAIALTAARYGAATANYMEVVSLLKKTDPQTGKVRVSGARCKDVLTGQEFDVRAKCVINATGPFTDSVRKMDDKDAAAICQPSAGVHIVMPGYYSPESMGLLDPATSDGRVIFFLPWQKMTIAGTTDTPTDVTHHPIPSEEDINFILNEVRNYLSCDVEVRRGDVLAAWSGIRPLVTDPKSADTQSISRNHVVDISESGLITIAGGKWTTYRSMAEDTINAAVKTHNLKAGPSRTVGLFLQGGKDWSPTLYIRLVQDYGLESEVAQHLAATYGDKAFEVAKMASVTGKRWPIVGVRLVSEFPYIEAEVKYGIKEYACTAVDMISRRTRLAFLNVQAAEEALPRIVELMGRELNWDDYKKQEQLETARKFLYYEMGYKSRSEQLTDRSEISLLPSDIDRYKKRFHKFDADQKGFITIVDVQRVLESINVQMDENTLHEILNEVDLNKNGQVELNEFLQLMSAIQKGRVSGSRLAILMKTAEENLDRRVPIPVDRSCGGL

Hsp90α = biological target: T4, Hsp90α (Homo sapiens, UniProt P07900)
T4 construct: gene HSP90AA1; labelled with DyLight 488 for MST

pKd (GPI): 2.87
pKd (PGK2): 2.49
pKd (GPD2): 1.87
pKd (Hsp90α): 1.28
Structure (SMILES): COc1cc2oc(=O)ccc2cc1O [Isoscopoletin]
